Assay in all cases: cell-based
One test has as its target hNav1.7 (Homo sapiens, UniProt Q15858). The class given is cell-based. To be noted: IonWorks Quattro, use-dependent block, hNav1.7; read-out: IWQ Use Nav1.7. (In general: The patch-clamp technique gives a direct electrical read-out from membranes.)
A further test deals with hNav1.3 (Homo sapiens, UniProt Q9NY46). The conditions noted are these: IonWorks Quattro, use-dependent block, hNav1.3; read-out: IWQ Use Nav1.3.
The target in the next test is hNav1.5 (Homo sapiens, UniProt Q14524). The conditions noted are these: IonWorks Quattro, use-dependent block, hNav1.5; read-out: IWQ Use Nav1.5.

Positions of bridges follow the written chain, without caps; N, C: chain ends. Non-standard residues stand in square brackets, D forms with d. Residues, ends and D or L forms follow the SMILES beside them. *: point of attachment. Phe(4-guanidino) = N=C(N)Nc1ccc(C[C@H](N)C(=O)O)cc1; Pent4ynoyl = C#CCCC(=O)*; Dab = NCC[C@H](N)C(=O)O; Nva = CCC[C@H](N)C(=O)O; Abu = CC[C@H](N)C(=O)O Some results are limits rather than exact numbers.

Sequence of hNav1.3 (Q9NY46 whole entry, looked up): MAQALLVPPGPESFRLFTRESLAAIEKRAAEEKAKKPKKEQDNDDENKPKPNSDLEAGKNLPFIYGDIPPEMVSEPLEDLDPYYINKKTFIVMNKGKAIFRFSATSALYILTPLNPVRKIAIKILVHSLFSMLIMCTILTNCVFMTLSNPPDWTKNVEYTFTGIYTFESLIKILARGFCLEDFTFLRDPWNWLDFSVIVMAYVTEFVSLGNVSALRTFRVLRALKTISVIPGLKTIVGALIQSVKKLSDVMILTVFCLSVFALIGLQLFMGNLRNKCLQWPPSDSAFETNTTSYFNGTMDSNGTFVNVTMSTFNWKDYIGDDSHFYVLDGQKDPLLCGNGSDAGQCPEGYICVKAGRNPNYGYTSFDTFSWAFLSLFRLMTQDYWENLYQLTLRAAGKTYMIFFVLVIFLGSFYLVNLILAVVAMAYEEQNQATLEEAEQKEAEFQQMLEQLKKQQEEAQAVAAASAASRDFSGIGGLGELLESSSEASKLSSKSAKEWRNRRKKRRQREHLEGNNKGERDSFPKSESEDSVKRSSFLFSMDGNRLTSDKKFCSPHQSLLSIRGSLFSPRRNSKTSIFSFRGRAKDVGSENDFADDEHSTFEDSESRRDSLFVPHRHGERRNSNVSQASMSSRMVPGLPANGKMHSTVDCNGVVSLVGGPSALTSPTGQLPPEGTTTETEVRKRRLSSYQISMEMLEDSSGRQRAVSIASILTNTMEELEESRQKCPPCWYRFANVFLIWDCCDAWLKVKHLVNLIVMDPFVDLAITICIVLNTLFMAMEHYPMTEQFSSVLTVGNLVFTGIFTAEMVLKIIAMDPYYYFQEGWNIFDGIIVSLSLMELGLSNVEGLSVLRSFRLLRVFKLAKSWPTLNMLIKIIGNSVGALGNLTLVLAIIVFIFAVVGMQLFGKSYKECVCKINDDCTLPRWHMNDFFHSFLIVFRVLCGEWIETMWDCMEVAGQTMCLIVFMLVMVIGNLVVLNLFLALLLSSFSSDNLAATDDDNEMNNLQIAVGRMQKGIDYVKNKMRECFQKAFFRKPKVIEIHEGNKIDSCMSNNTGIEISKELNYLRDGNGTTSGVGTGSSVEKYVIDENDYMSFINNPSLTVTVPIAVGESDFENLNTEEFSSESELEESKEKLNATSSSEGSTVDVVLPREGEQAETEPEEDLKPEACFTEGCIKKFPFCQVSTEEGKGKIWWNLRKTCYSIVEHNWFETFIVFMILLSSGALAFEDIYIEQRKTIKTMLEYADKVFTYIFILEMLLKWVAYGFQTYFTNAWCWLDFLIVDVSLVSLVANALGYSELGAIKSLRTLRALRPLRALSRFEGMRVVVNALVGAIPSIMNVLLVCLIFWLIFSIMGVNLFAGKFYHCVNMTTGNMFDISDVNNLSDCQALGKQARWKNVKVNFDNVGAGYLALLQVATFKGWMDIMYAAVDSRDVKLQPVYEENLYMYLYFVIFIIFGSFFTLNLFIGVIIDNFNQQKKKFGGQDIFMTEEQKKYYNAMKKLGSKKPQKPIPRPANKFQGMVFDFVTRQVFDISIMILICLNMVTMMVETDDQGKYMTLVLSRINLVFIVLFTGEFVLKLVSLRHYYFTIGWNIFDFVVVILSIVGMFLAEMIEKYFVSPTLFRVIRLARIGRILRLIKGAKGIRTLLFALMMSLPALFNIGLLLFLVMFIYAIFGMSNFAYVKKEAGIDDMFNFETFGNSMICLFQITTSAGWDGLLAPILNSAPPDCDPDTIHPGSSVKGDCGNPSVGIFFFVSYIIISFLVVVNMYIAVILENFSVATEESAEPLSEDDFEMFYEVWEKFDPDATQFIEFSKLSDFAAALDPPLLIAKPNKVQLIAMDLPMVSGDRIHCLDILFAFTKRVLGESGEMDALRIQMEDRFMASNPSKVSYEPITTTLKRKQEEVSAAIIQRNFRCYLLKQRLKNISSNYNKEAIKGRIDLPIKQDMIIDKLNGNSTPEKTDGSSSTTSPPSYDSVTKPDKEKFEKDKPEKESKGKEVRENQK
Sequence of hNav1.7 (Q15858 whole entry, looked up): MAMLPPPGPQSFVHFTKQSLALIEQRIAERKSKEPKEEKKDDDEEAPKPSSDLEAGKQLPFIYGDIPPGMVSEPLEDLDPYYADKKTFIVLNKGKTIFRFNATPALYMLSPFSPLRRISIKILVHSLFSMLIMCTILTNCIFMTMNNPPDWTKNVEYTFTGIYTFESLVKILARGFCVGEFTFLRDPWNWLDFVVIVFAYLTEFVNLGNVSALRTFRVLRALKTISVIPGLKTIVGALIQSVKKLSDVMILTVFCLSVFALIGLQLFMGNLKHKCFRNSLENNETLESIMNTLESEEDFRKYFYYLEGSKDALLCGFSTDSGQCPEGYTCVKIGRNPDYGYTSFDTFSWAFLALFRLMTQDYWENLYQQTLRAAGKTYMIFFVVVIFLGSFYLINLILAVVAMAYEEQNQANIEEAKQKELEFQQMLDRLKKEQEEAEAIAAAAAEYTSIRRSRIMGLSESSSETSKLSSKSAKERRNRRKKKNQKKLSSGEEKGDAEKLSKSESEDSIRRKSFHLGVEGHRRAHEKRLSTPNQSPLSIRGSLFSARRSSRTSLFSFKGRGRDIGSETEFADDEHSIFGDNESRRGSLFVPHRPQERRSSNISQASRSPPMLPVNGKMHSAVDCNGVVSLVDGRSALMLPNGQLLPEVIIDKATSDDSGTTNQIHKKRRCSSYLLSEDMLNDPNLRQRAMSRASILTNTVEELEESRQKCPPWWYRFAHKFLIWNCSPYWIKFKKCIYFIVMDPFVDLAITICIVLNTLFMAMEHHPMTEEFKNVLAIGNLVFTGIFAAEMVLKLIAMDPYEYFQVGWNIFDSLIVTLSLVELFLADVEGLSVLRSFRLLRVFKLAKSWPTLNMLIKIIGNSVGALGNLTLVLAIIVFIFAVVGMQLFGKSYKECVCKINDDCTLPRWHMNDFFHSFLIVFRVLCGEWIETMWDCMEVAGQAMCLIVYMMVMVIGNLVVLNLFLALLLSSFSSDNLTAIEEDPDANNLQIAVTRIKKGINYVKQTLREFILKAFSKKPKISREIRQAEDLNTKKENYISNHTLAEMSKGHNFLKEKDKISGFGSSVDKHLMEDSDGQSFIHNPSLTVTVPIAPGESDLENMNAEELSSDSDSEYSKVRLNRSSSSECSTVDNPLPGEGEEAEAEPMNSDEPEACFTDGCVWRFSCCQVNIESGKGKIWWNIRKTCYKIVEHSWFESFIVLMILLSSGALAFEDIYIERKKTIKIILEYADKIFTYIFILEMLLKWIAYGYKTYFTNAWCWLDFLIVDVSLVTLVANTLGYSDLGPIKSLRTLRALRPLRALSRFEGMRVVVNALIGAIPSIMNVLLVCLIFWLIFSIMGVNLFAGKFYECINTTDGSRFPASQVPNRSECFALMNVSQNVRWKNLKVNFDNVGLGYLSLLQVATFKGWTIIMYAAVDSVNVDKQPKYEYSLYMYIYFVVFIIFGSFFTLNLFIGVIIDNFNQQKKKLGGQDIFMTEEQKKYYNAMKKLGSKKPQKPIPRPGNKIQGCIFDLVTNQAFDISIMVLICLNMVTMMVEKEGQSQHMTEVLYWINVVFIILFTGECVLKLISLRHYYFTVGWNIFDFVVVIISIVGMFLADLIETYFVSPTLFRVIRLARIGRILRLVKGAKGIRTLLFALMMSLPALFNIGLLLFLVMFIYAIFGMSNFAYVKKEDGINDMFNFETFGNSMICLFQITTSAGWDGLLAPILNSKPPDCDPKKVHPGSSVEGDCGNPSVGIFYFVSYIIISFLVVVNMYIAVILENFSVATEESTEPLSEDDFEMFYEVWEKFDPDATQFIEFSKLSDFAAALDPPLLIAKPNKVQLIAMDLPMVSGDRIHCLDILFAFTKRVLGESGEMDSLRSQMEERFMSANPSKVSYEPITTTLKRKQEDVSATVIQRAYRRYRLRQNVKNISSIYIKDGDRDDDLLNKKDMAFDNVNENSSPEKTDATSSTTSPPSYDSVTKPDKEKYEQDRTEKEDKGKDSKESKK

In the case of `C#CCCC(=O)N[C@@H](CC(=O)O)C(=O)N[C@H]1CSSC[C@@H]2NC(=O)[C@@H]3CSSC[C@@H](C(=O)N[C@@H](CCCCN)C(=O)N[C@@H](Cc4ccc(O)cc4)C(=O)N[C@H](C(=O)N[C@@H](Cc4ccccc4)C(N)=O)C(C)C)NC(=O)[C@H](Cc4c[nH]c5ccccc45)NC(=O)[C@H](CCCCN)NC(=O)[C@H](Cc4c[nH]cn4)NC(=O)[C@H]([C@@H](C)O)NC(=O)[C@H](CCCNC(=N)N)NC(=O)[C@H](CO)NC(=O)[C@H](CSSC[C@H](NC(=O)[C@H](CCCCN)NC(=O)[C@H](CCCNC(=N)N)NC(=O)[C@H](Cc4ccccc4)NC(=O)[C@H](C)NC(=O)CNC(=O)[C@H](CC(C)C)NC1=O)C(=O)N[C@@H]([C@@H](C)CC)C(=O)N1CCC[C@H]1C(=O)N[C@@H](CC(=O)O)C(=O)N[C@@H](CC)C(=O)N[C@@H](CC(=O)O)C(=O)N[C@@H](CCCCN)C(=O)N3)NC(=O)[C@H](C(C)C)NC(=O)[C@H](CC(C)C)NC(=O)[C@H](CC(N)=O)NC(=O)[C@@H]1CCCN1C(=O)[C@H](CCCNC(=N)N)NC2=O` [compound 757] (Pent4ynoyl-DCLGAFRKCIPD[Abu]DKCCRPNLVCSRTHKWCKYVF-NH2; disulfide 2-17, 9-23, 16-30), the IC50 came out at 710 nM at hNav1.7, 280 nM at hNav1.3 and 34900 nM on hNav1.5.

On to `C#CCCC(=O)N[C@@H](CC(=O)O)C(=O)N[C@H]1CSSC[C@@H]2NC(=O)[C@@H]3CSSC[C@@H](C(=O)N[C@@H](CCCCN)C(=O)N[C@@H](Cc4ccc(O)cc4)C(=O)N[C@H](C(=O)N[C@@H](Cc4ccccc4)C(N)=O)C(C)C)NC(=O)[C@H](Cc4c[nH]c5ccccc45)NC(=O)[C@H](CCCCN)NC(=O)[C@H](Cc4c[nH]cn4)NC(=O)[C@H]([C@@H](C)O)NC(=O)[C@H](CCCNC(=N)N)NC(=O)[C@H](CO)NC(=O)[C@H](CSSC[C@H](NC(=O)[C@H](CCCCN)NC(=O)[C@H](CCCNC(=N)N)NC(=O)[C@H](CC(C)C)NC(=O)[C@H](CC)NC(=O)CNC(=O)[C@H](CC(C)C)NC1=O)C(=O)N[C@@H]([C@@H](C)CC)C(=O)N1CCC[C@H]1C(=O)N[C@@H](CC(=O)O)C(=O)N[C@@H](CC)C(=O)N[C@@H](CC(=O)O)C(=O)N[C@@H](CCCCN)C(=O)N3)NC(=O)[C@H](C(C)C)NC(=O)[C@H](CC(C)C)NC(=O)[C@H](CC(N)=O)NC(=O)[C@@H]1CCCN1C(=O)[C@H](CCCNC(=N)N)NC2=O` [compound 758] (Pent4ynoyl-DCLG[Abu]LRKCIPD[Abu]DKCCRPNLVCSRTHKWCKYVF-NH2; disulfide 2-17, 9-23, 16-30), for which the IC50 on hNav1.7 amounted to 460 nM; at hNav1.3, 690 nM; at hNav1.5 it was 32700 nM.

For `C#CCCC(=O)N[C@@H](CC(=O)O)C(=O)N[C@H]1CSSC[C@@H]2NC(=O)[C@@H]3CSSC[C@@H](C(=O)N[C@@H](CCCCN)C(=O)N[C@@H](Cc4ccc(O)cc4)C(=O)N[C@H](C(=O)N[C@@H](Cc4ccccc4)C(N)=O)C(C)C)NC(=O)[C@H](Cc4c[nH]c5ccccc45)NC(=O)[C@H](CCCNC(=N)N)NC(=O)[C@H](Cc4c[nH]cn4)NC(=O)[C@H]([C@@H](C)O)NC(=O)[C@H](CCCNC(=N)N)NC(=O)[C@H](CO)NC(=O)[C@H](CSSC[C@H](NC(=O)[C@H](CCCCN)NC(=O)[C@H](CCCNC(=N)N)NC(=O)[C@H](CC(C)C)NC(=O)[C@H](CCC)NC(=O)CNC(=O)[C@H](CC(C)C)NC1=O)C(=O)N[C@@H]([C@@H](C)CC)C(=O)N1CCC[C@H]1C(=O)N[C@@H](CC(=O)O)C(=O)N[C@@H](CC)C(=O)N[C@@H](CC(=O)O)C(=O)N[C@@H](CCCCN)C(=O)N3)NC(=O)[C@H](C(C)C)NC(=O)[C@H](CC(C)C)NC(=O)[C@H](CC(N)=O)NC(=O)[C@@H]1CCCN1C(=O)[C@H](CCCNC(=N)N)NC2=O` [compound 759] (Pent4ynoyl-DCLG[Nva]LRKCIPD[Abu]DKCCRPNLVCSRTHRWCKYVF-NH2; disulfide 2-17, 9-23, 16-30), the results for the IC50 on hNav1.7, at hNav1.3 and on hNav1.5 were 100 nM, 230 nM and 46200 nM, respectively.

As for `C#CCCC(=O)N[C@@H](CC(=O)O)C(=O)N[C@H]1CSSC[C@@H]2NC(=O)[C@@H]3CSSC[C@@H](C(=O)N[C@@H](CCCCN)C(=O)N[C@@H](Cc4ccc(O)cc4)C(=O)N[C@H](C(=O)N[C@@H](Cc4ccccc4)C(N)=O)C(C)C)NC(=O)[C@H](Cc4c[nH]c5ccccc45)NC(=O)[C@H](CCCCN)NC(=O)[C@H](Cc4c[nH]cn4)NC(=O)[C@H]([C@@H](C)O)NC(=O)[C@H](CCCNC(=N)N)NC(=O)[C@H](CO)NC(=O)[C@H](CSSC[C@H](NC(=O)[C@H](CCCCN)NC(=O)[C@H](CCCNC(=N)N)NC(=O)[C@H](CC(C)C)NC(=O)[C@H](CCC)NC(=O)CNC(=O)[C@H](CC(C)C)NC1=O)C(=O)N[C@@H]([C@@H](C)CC)C(=O)N1CCC[C@H]1C(=O)N[C@@H](CC(=O)O)C(=O)N[C@@H](CC)C(=O)N[C@@H](CC(=O)O)C(=O)N[C@@H](CCCCN)C(=O)N3)NC(=O)[C@H](C(C)C)NC(=O)[C@H](CC(C)C)NC(=O)[C@H](CC(N)=O)NC(=O)[C@@H]1CCCN1C(=O)[C@H](CCCNC(=N)N)NC2=O` [compound 760] (Pent4ynoyl-DCLG[Nva]LRKCIPD[Abu]DKCCRPNLVCSRTHKWCKYVF-NH2; disulfide 2-17, 9-23, 16-30), the IC50 at hNav1.7 was determined as 190 nM; at hNav1.3, 250 nM; at hNav1.5 it was 35200 nM.

For the compound `CC[C@H](C)[C@@H]1NC(=O)[C@@H]2CSSC[C@@H]3NC(=O)[C@H](C(C)C)NC(=O)[C@H](CC(C)C)NC(=O)[C@H](CC(N)=O)NC(=O)[C@@H]4CCCN4C(=O)[C@H](CCCNC(=N)N)NC(=O)[C@H](CSSC[C@H](NC(=O)[C@@H](N)CC(=O)O)C(=O)N[C@@H](CC(C)C)C(=O)NCC(=O)N[C@@H](C)C(=O)N[C@@H](CCSC)C(=O)N[C@@H](CCCNC(=N)N)C(=O)N[C@@H](CCCCN)C(=O)N2)NC(=O)[C@H](CSSC[C@@H](C(=O)N[C@@H](CCCCN)C(=O)N[C@@H](Cc2ccc(O)cc2)C(=O)N[C@H](C(=O)N[C@@H](Cc2ccccc2)C(N)=O)C(C)C)NC(=O)[C@H](Cc2c[nH]c4ccccc24)NC(=O)[C@H](Cc2ccc(NC(=N)N)cc2)NC(=O)[C@H](Cc2c[nH]cn2)NC(=O)[C@H]([C@@H](C)O)NC(=O)[C@H](CCCNC(=N)N)NC(=O)[C@H](CO)NC3=O)NC(=O)[C@H](CCCCN)NC(=O)[C@H](CC(=O)O)NC(=O)[C@H](CC(N)=O)NC(=O)[C@H](CC(=O)O)NC(=O)[C@@H]2CCCN2C1=O` [compound 761] (H-DCLGAMRKCIPDNDKCCRPNLVCSRTH[Phe(4-guanidino)]WCKYVF-NH2; disulfide 2-17, 9-23, 16-30), the IC50 at hNav1.7 worked out at 160 nM; at hNav1.3, 630 nM; on hNav1.5 it was 26900 nM.

As for `CC[C@H](C)[C@@H]1NC(=O)[C@@H]2CSSC[C@@H]3NC(=O)[C@H](C(C)C)NC(=O)[C@H](CC(C)C)NC(=O)[C@H](CC(N)=O)NC(=O)[C@@H]4CCCN4C(=O)[C@H](CCCNC(=N)N)NC(=O)[C@H](CSSC[C@H](NC(=O)[C@@H](N)CC(=O)O)C(=O)N[C@@H](CC(C)C)C(=O)NCC(=O)N[C@@H](C)C(=O)N[C@@H](CCSC)C(=O)N[C@@H](CCCNC(=N)N)C(=O)N[C@@H](CCCCN)C(=O)N2)NC(=O)[C@H](CSSC[C@@H](C(=O)N[C@@H](CCCCN)C(=O)N[C@@H](Cc2ccc(O)cc2)C(=O)N[C@H](C(=O)N[C@@H](Cc2ccccc2)C(N)=O)C(C)C)NC(=O)[C@H](Cc2c[nH]c4ccccc24)NC(=O)[C@H](CCN)NC(=O)[C@H](Cc2c[nH]cn2)NC(=O)[C@H]([C@@H](C)O)NC(=O)[C@H](CCCNC(=N)N)NC(=O)[C@H](CO)NC3=O)NC(=O)[C@H](CCCCN)NC(=O)[C@H](CC(=O)O)NC(=O)[C@H](CC(N)=O)NC(=O)[C@H](CC(=O)O)NC(=O)[C@@H]2CCCN2C1=O` [compound 762] (H-DCLGAMRKCIPDNDKCCRPNLVCSRTH[Dab]WCKYVF-NH2; disulfide 2-17, 9-23, 16-30), the values for the IC50 on hNav1.7, on hNav1.3 and on hNav1.5 were 320 nM, 860 nM and 23300 nM, respectively.

For the compound `CC[C@H](C)[C@@H]1NC(=O)[C@@H]2CSSC[C@@H]3NC(=O)[C@H](C(C)C)NC(=O)[C@H](CC(C)C)NC(=O)[C@H](CC(N)=O)NC(=O)[C@@H]4CCCN4C(=O)[C@H](CCCNC(=N)N)NC(=O)[C@H](CSSC[C@H](NC(=O)[C@@H](N)CC(=O)O)C(=O)N[C@@H](CC(C)C)C(=O)NCC(=O)N[C@@H](C)C(=O)N[C@@H](CCSC)C(=O)N[C@@H](CCCNC(=N)N)C(=O)N[C@@H](CCCCN)C(=O)N2)NC(=O)[C@H](CSSC[C@@H](C(=O)N[C@@H](CCCCN)C(=O)N[C@@H](Cc2ccc(O)cc2)C(=O)N[C@H](C(=O)N[C@@H](Cc2ccccc2)C(N)=O)C(C)C)NC(=O)[C@H](Cc2c[nH]c4ccccc24)NC(=O)[C@H](Cc2ccccc2)NC(=O)[C@H](Cc2c[nH]cn2)NC(=O)[C@H]([C@@H](C)O)NC(=O)[C@H](CCCNC(=N)N)NC(=O)[C@H](CO)NC3=O)NC(=O)[C@H](CCCCN)NC(=O)[C@H](CC(=O)O)NC(=O)[C@H](CC(N)=O)NC(=O)[C@H](CC(=O)O)NC(=O)[C@@H]2CCCN2C1=O` [compound 764] (H-DCLGAMRKCIPDNDKCCRPNLVCSRTHFWCKYVF-NH2; disulfide 2-17, 9-23, 16-30), the IC50 is 4100 nM at hNav1.7, greater than 5000 nM on hNav1.3 and 41400 nM on hNav1.5.
